Laboratory results as given in patent publication US20250129121A1, “POLYPEPTIDE, PRODUCT INCLUDING POLYPEPTIDE FOR INHIBITING FUSOBACTERIUM NUCLEATUM, OR DRUG FOR PREVENTING COLORECTAL CANCER” (priority 2022, published 2025).
Converted amounts (≈) assume the structure as drawn. Where a SMILES comes first, the peptide text is derived from it.

How the values were obtained:
other strains = assay: Antimicrobial activity against strains other than F. nucleatum (bactericidal specificity); type: cell-based; settings: test strains other than F. nucleatum
Procedure: (§1) A. Each polypeptide was prepared into a specified stock solution for later use. Minimum inhibitory concentrations (MICs) of the polypeptides P1 to P12 were determined by a broth microdilution method. With 0.01% acetic acid (including 0.2% of bovine serum albumin (BSA)) as a diluent, a series of gradient antimicrobial peptide solutions were prepared by a two-fold dilution method.
(§2) B. 100 μL of each polypeptide stock solution was taken and added to a 96-well cell culture plate, and then each strain solution to be tested (about 10^5/mL) was added in an equal volume to each well. A positive control (including a strain solution, but not including a polypeptide) and a negative control (including neither a strain solution nor a polypeptide). Strains to be tested include Escherichia coli Nissile 1917, Vibrio cholerae H1, Pseudomonas aeruginosa PAO1, F. nucleatum 25586, F. nucleatum 10953, Bifidobacterium uniformis 6597, Lactobacillus acidophilus 6075, Bifidobacterium longum 6194Lactobacillus rhamnosus 6141, and Streptococcus agalactiae H94.
(§3) C. The cell culture plate was incubated at a constant temperature of 37° C. for 20 h, and MIC was recorded when the turbidity was not observed by naked eyes at a bottom of a well. The strains all were purchased from the market.

F. nucleatum 25586 = type: cell-based, Fusobacterium nucleatum; settings: 25586, 20 h
Procedure: as §1, §2, §3

F. nucleatum 10953 = type: cell-based, Fusobacterium nucleatum; settings: 10953, 20 h
Procedure: as §1, §2, §3

[1] = system: F. nucleatum-induced colorectal cancer; assay: F. nucleatum-enhanced colorectal cancer animal model; type: in vivo, C57BL APC^min mouse; settings: 20 mg/kg per day intragastrically for 7 d, compared with Fn+H2O group
From the text: A. To verify the antibacterial effects of the F. nucleatum-specific antimicrobial peptides in vivo for F. nucleatum and especially the preventive effects of the F. nucleatum-specific antimicrobial peptides for F. nucleatum-induced diseases, an F. nucleatum-enhanced colorectal cancer animal model (i.e. the C57BL APC^min mouse orally administered with F. nucleatum) was adopted in this example. As shown in FIG. 20: C57BL APC^min mice were selected and intragastrically administered with F. nucleatum 25586 three times a week as an F. nucleatum intragastric administration group. Mice in a control group were intragastrically administered with an equal amount of PBS every week (PBS intragastric administration group). On the second day of intragastric administration in the first week, mice each were treated with 2.5% dextran sulfate sodium (DSS) consecutively for 3 d to improve the colonization of F. nucleatum. B. Mice were intragastrically administered with the antimicrobial peptide P8 or P11 for treatment in the sixth week, and mice in the control group were intragastrically administered with pure water. Each mouse was intragastrically administered at 20 mg/kg per day consecutively for 7 d. Then, mice were euthanized, and the tumor number and size were recorded.

[2] = system: Lactobacillus acidophilus 6075; type: cell-based; settings: 20 h
Procedure: as §1, §2, §3

[3] = system: Bifidobacterium longum 6194; type: cell-based; settings: 20 h
Procedure: as §1, §2, §3

[4] = system: Pseudomonas aeruginosa PAO1; type: cell-based; settings: PAO1, 20 h
Procedure: as §1, §2, §3

[5] = system: Escherichia coli Nissile 1917; type: cell-based; settings: Nissile 1917, 20 h
Procedure: as §1, §2, §3

[6] = system: Streptococcus agalactiae H94; type: cell-based; settings: H94, 20 h
Procedure: as §1, §2, §3

[7] = system: Bifidobacterium uniformis 6597; type: cell-based; settings: 20 h
Procedure: as §1, §2, §3

[8] = system: Lactobacillus rhamnosus 6141; type: cell-based; settings: 20 h
Procedure: as §1, §2, §3

Structure (SMILES) | antimicrobial activity against other strains (other strains) | MIC Fusobacterium nucleatum 25586 (F. nucleatum 25586) | MIC Fusobacterium nucleatum 10953 (F. nucleatum 10953) | tumor diameter [1] | tumor number [1] | MIC Lactobacillus acidophilus 6075 [2] | MIC Bifidobacterium longum 6194 [3] | MIC Pseudomonas aeruginosa PAO1 [4] | MIC Escherichia coli nissile1917 [5] | MIC Streptococcus agalactiae H94 [6] | MIC Bifidobacteriu muniformis 6597 [7] | MIC Lactobacterium rhamnosus 6141 [8]
N=C(N)NCCC[C@H](NC(=O)CNC(=O)[C@@H]1CCCN1C(=O)[C@H](CCCNC(=N)N)NC(=O)[C@H](Cc1c[nH]c2ccccc12)NC(=O)[C@H](Cc1c[nH]cn1)NC(=O)[C@H](Cc1c[nH]c2ccccc12)NC(=O)[C@H](CCCNC(=N)N)NC(=O)[C@H](Cc1c[nH]c2ccccc12)NC(=O)[C@H](Cc1c[nH]cn1)NC(=O)[C@@H](N)Cc1c[nH]c2ccccc12)C(=O)N[C@@H](Cc1c[nH]c2ccccc12)C(=O)N[C@@H](Cc1c[nH]cn1)C(=O)N[C@@H](Cc1c[nH]c2ccccc12)C(=O)N[C@@H](CCCNC(=N)N)C(=O)N[C@@H](Cc1c[nH]c2ccccc12)C(=O)N[C@@H](Cc1c[nH]cn1)C(=O)N[C@@H](Cc1c[nH]c2ccccc12)C(=O)O [P8, WHWRWHWRPGRWHWRWHW] (H-WHWRWHWRPGRWHWRWHW-OH; N-terminus assumed) | weak antimicrobial activity | 8 µM (≈ 22.7 µg/mL) | 4 µM (≈ 11.3 µg/mL) | relatively small | relatively small | 32 µM (≈ 90.7 µg/mL) | >64 µM | >64 µM | >64 µM | >64 µM | >64 µM | >64 µM
N=C(N)NCCC[C@H](NC(=O)CNC(=O)[C@@H]1CCCN1C(=O)[C@H](CCCNC(=N)N)NC(=O)[C@H](Cc1c[nH]c2ccccc12)NC(=O)[C@H](CCCCN)NC(=O)[C@H](Cc1c[nH]c2ccccc12)NC(=O)[C@H](CCCNC(=N)N)NC(=O)[C@H](Cc1c[nH]c2ccccc12)NC(=O)[C@H](CCCCN)NC(=O)[C@@H](N)Cc1c[nH]c2ccccc12)C(=O)N[C@@H](Cc1c[nH]c2ccccc12)C(=O)N[C@@H](CCCCN)C(=O)N[C@@H](Cc1c[nH]c2ccccc12)C(=O)N[C@@H](CCCNC(=N)N)C(=O)N[C@@H](Cc1c[nH]c2ccccc12)C(=O)N[C@@H](CCCCN)C(=O)N[C@@H](Cc1c[nH]c2ccccc12)C(=O)O [P11, WKWRWKWRPGRWKWRWKW] (H-WKWRWKWRPGRWKWRWKW-OH; N-terminus assumed) | weak antimicrobial activity | 4 µM (≈ 11.2 µg/mL) | 16 µM (≈ 44.8 µg/mL) | relatively small | relatively small | 32 µM (≈ 89.6 µg/mL) | 16 µM (≈ 44.8 µg/mL) | 32 µM (≈ 89.6 µg/mL) | 64 µM (≈ 179 µg/mL) | 64 µM (≈ 179 µg/mL) | 8 µM (≈ 22.4 µg/mL) | >64 µM
